Assay results reported in US20240208950A1, “COMPOSITIONS AND METHODS FOR TREATMENT OF CERVICAL AND OVARIAN CANCER” (SOUTH DAKOTA BOARD OF REGENTS, priority 2021, published 2024).

How the values were obtained:
[1] = system: E-cadherin and N-cadherin mRNA in cervical cancer cells; assay: qPCR of E-cadherin and N-cadherin; format: cell-based, human; details: both cervical cancer cells, 18 hours
Method: RNA from cervical cancer cells was isolated using Qiagen kit and quantified using NanoDrop instrument 2000 (Thermo Scientific, Waltham, MA, USA). To analyze the expression of miR-200a in control and Br-ORM treated cells, 100 ng total RNA was reverse transcribed into cDNA using specific primers designed for miRNA analysis (Applied Biosystems, Foster City, CA, USA). The expression of this miRNAs was determined by qRT-PCR using the Taqman PCR master mixture and specific primers designed for detection of mature miRNAs (Applied Biosystems). The expression of miRNA was normalized with the expression of endogenous control, RNU6B.
Epithelial mesenchymal transition (EMT) is the basic characteristic of cancer cells in which epithelial cells undergo morphologic and molecular changes that transform the cells to mesenchymal, highly metastatic (invasive and motile), and drug-resistant phenotypes. […] The effect of Br-ORM treatment on various EMT markers in cervical cancer cells was evaluated. […] The effect of Br-ORM on expression of EMT markers in cervical cancer cells compared to untreated group by use of qPCR analysis was determined. […] Expression of E-cadherin in cervical cancer cells treated with Br-ORM (10 μM) for 18 hours was also determined by immunofluorescence and confocal microscopy. […]
FIG. 14. […] Closure of wound was determined and photographed using phase contrast microscopy. […]

CaSki cells = assay: Cell proliferation assay (MTS), CaSki; format: cell-based, human; details: 1-20 μM, 24 hours
Method: The effect of Br-ORM on CaSki and SiHa cells proliferation was performed using the MTS assay. Briefly, cells were seeded at a density of 5×10^3 cells per well in 96 well plate and allowed to stand overnight at 37° C. and 5% CO2 incubator. Next day, cells were treated with different concentrations of Br-ORM (1, 5, 10 and 20 μM). DMSO was used as a vehicle for the treatment of control cells. Twenty four hours post-treatment, 20 μL of MTS reagent (5 mg/mL) was added in each well and further incubated the plate for 2 hours in a CO2 incubator. Absorbance was taken after 2 hours at […] (SpectraMax M2 spectrophotometer, Molecular Devices, Sunnyvale, CA, USA). The experiment was performed in triplicates. Results were represented as percent viability with respect to the control group. […]
FIG. 13. […] Cell viability was assessed by MTS assay. […] Bar graphs indicating quantification of colony formation in CaSki (i), and SiHa (ii) cells of cervical cancer with respect to vehicle control. […] Briefly, cervical cancer cells were treated with Br-ORM (10 μM) for 24 hours and the apoptosis inducing effect of Br-ORM was analyzed by Annexin V staining. […] The equal loading of protein in each lane was determined by probing the blots with β-actin antibody (FIG. 13F). […] Br-ORM arrests cell cycle in G1/S phase as determined by flow cytometry. […]

Compound: COc1ccc2c(c1)OC(C)(C)C(c1ccc(Br)cc1)C2c1ccc(OCCN2CCCC2)cc1 (stereo not shown) [ORM-Br]
- mRNA level of E-cadherin [1]: significantly elevated
- mRNA level of N-cadherin [1]: significantly reduced
- cell viability / growth (CaSki cells): inhibits the growth
- cell viability / growth (CaSki cells; listed as Br-ORM): dose dependently inhibited the cell viability
